Laboratory results reported in patent publication US20220274967A1, “BCAT MODULATION” (Icagen, LLC, priority 2019, published 2022).

Key:
[1] = 3-HIB assay in vitro, direct MS assay of conditioned media; format: cell-based, human; conditions: Homo sapiens, 24 h, GM00371 cells, read-out: 3HIB INHIBITION IC50 (μM) MEAN GM00371 cells Direct MS Assay
Experimental: Cell Plating: Cells (Coriell Institute GM00371 cells) were plated (96-well clear bottom sterile plate; Greiner 655098) at 10,000 cells/0.1 mL in Eagle's minimum essential medium (EMEM)/15% FBS (Gibco 16000-044) with a Combi dispenser in a cell culture hood and incubated at 37° C. and 5% CO2 overnight.
Compound Dilution: Compound were prepared as 33.3× intermediate dilution in DMSO in 96 well round polystyrene plates. For 30 μM final maximum start with 30 μL of 10 mM in DMSO. 10-12 1:3 serial dilutions were prepared from left to right (20 μL+40 μL DMSO). A 10× secondary dilution was prepare in EMEM by taking 7.5 μL 33.3× and transfer to replicate 96 well round polystyrene plates and then adding 242.5 μL EMEM A 1× final dilution in EMEM was prepared by taking 50 μL 10× dilution and transferring to replicate 96 well polypropylene assay block (Costar 3956) and adding 450 μL EMEM A control was prepared for maximal compound inhibition by taking 20 μL 10 mM Reference Compound A and adding 40 μL DMSO for a concentration of 3.3 mM To 7.5 μL of the 3.3 mM Reference Compound A solution and added 242.5 μL EMEM to make a 100 μM solution. The subsequent Reference Compound A solution was diluted with EMEM to achieve a final concentration of 10 μM. The structure of Reference Compound A is:
A control was prepared for maximal compound toxicity by taking 7.5 μL Reference Compound B and 242.5 μL EMEM to make […]. 50 μL of that 100 μM Reference Compound B solution was combined with 450 μL EMEM to achieve a concentration of 30 μM. The structure of Reference Compound B is
A DMSO Control was prepared by dilution 7.5 μL with 242.5 μL EMEM and taking 50 μL of the subsequent solution and diluting with 450 μL EMEM.
Compound Treatment: Media was aspirated from the cells and 100 μL of D-PBS (ThermoFisher 14190144) was added and then removed. 100 μL of diluted compound was added to the cells in the place and the cells were incubated at 37° C. and 5% CO2 for 24 hours.
Collection of Conditioned Media: For 3HIB MS detection: 20 μL conditioned media was removed from the cells and was transferred to a labeled replicate 96 well polypropylene assay plate (VWR 62408-946). And the plate was heat sealed and stored at −80° C.
3HIB Derivatization (Generalized SOP): The media collected for 3HIB MS detection was derivatized under the following conditions. Buffer: 0.1M 1-Ethyl-3-(3-dimethylaminopropyl)carbodiimide (EDC) dissolved in 0.1 M 2-(N-morpholino)ethanesulfonic acid ([…]) adjusted to pH 5.6. Buffer prep: weighed 10.6 g MES (Sigma #M-5287) per 500 mL HPLC grade H2O. Stored at 4° C.; 0.1M EDC: Weighed 1.971 g EDC (#E-1769) per 100 mL MES. Adjusted pH to 5.6 with ˜40 drops of 1N NaOH and stored at 4° C. Buffer has a short half-life should be used within two weeks.
Derivatization: To 20 μL sample was added 60 μL 5 uM 3HIB-4C13 internal standard followed by 20 μL EDC in MES and 100 μL MES. The plate was sealed and incubate at 50° C. for […] then centrifuged at 4000 rpm at 6° C. for 10 minutes. LC-MS analysis was then conducted and the data was processed using standard methods.

GM00371 cells = assay: Viability assay (Cell titer glo) in the 3-HIB assay; format: cell-based, human; conditions: Homo sapiens, 24 h, read-out: 3HIB INHIBITION IC50 (μM) MEAN GM00371 cells Viablility Assay
Outline: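 GM00371 cells (10,000/well, EMEM/15% FBS) were exposed for 24 h at 37 °C to compounds in 1:3 serial dilution from 30 μM top concentration in EMEM. Reference Compound B at 30 μM served as maximal-toxicity control. Viability read as CellTiter-Glo luminescence.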

BCAT2 = biological target: T1, BCAT2 (Homo sapiens, UniProt O15382); assay: BCAT2 enzyme inhibition (human); format: biochemical
T1 sequence (O15382 28-392): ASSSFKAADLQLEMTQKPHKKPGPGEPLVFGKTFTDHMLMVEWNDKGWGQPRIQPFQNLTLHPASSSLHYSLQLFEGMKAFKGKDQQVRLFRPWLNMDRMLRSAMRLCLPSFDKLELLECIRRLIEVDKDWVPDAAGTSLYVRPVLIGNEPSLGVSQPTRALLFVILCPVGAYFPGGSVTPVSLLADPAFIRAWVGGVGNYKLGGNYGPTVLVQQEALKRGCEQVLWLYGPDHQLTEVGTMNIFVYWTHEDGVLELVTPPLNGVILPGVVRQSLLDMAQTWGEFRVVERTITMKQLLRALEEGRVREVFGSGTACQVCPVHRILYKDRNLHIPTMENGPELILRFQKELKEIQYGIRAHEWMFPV
Outline: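 Cell-free coupled fluorescent assay: human BCATm converts branched-chain amino acids and α-ketoglutarate to L-glutamate, which L-glutamate oxidase and HRP link to resorufin formation from Amplex Red; activity taken as reduced glutamate signal.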

BCAT1 = biological target: T2, BCAT1 (Homo sapiens, UniProt P54687); assay: BCAT1 enzyme inhibition (human), Glutamate Glo luminescence; format: biochemical
T2 sequence (P54687 1-386): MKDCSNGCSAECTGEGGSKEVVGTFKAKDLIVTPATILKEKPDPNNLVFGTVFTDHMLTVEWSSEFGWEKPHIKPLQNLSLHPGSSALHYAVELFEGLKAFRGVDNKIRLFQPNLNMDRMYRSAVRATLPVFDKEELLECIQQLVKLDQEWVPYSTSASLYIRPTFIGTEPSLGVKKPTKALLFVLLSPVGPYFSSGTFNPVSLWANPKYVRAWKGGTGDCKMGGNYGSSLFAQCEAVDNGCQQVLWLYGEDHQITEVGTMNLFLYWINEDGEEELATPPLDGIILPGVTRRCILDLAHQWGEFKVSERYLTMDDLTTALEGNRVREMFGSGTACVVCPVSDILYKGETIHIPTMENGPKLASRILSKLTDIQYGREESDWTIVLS
Experimental: The BCAT1 inhibitory activity of selected compounds of the present disclosure were also evaluated. Compounds were prepared as up to 10 mM stock solutions generally using DMSO as the vehicle. 10-point dose response curves were generated using the Echo-550 (Labcyte) acoustic dispenser. Compound source plates ([…]) were made by serially diluting compound stocks to create 1 mM, 0.1 mM, and 0.01 mM solutions in DMSO into Echo certified LDV plates. The Echo then serially spotted 100% DMSO stock solutions into source dose response plates to generate a semi-log fold dilution scheme. 100% DMSO was added to the spotted dose response plates to bring the final volume to 5 μL, creating a 333× stock plate. 120 nL of the dose response stock plate was then spotted into the assay plate. 10 μL of assay buffer (50 mM Tris with 0.05% TWEEN-20) was then added to the plates resulting in a 4× working concentration in the assay plate. Final assay test concentration range was 3 μM to 0.0001 μM with a final DMSO concentration of 0.3%.
BCAT1 enzyme stock was first diluted to a 4× working concentration of 0.24 μg/mL in assay buffer (final assay concentration is 0.06 ug/ml). 10 μL of the 4×BCAT1 solution was then added to the previously prepared assay plate containing test compound or controls, and incubated at room temperature, protected from light, for either 10 or 60 minutes. After the compound incubation period, 20 μL of assay buffer plus 2× substrate is added to all wells (Final assay concentration of substrates is 300 μM L-leucine and 250 μM alpha-ketoglutaric acid). Enzyme reaction was then incubated for 10 minutes at room temperature. After the 10 minute incubation, the enzymatic reaction was halted with the addition of 5 μL of 0.6N HCl and incubated for 1 min. 5 μL of 1M Tris (pH 8.0) was then added to neutralize pH. 12.5 μL of the quenched assay volume was then transferred to a white, 384 well plate and 12.5 μL of Glutamate detection reagent was added (detection reagent prepared per Promega Glutamate Glo kit instructions). Plates were then incubated for 30 minutes at room temperature, protected from light. After glutamate detection incubation period, luminescence was read on BMG Novostar and relative light units was measured and exported for analysis.
Compound modulation of BCAT1 enzymatic activity was determined as follows. IC50 values were calculated in ActivityBase, using a 4-parameter fit equation. Data was normalized to maximum inhibition form the reference agent VS558CSA (at 10 μM). Relative light units were exported for analysis and % inhibition values for each well were calculated using the following formula: […]

IC50 [1] | IC50 (BCAT2) | IC50 (BCAT1) | SMILES | IC50 (GM00371 cells)
≥ 1 µM | 500 to 1000 nM |  | CNC(=O)c1ccc2c(c1)nc(-c1ccccn1)n2[C@@H]1CCC[C@H](NC(=O)c2ccc([N+](=O)[O-])s2)C1 [Compound 107] | ≥ 1 µM
≥ 1 µM | < 100 nM |  | CNC(=O)c1ccc2c(c1)nc(-c1ccccn1)n2[C@@H]1CCC[C@H](NC(=O)c2ccc(C(F)(F)F)s2)C1 [Compound 113] | 0.5 to 1 µM
≥ 1 µM | > 1000 nM |  | CNC(=O)c1ccc2c(c1)nc(-c1ccccn1)n2[C@@H]1CCC[C@H](NC(=O)c2cccc(Br)c2)C1 [Compound 116] | ≥ 1 µM
≥ 1 µM | < 100 nM |  | CNC(=O)c1ccc2c(c1)nc(-c1ccccc1OC)n2[C@H]1CCC[C@@H](NC(=O)c2ccc(C#N)s2)C1 [Compound 124] | ≥ 1 µM
0.1 to 0.5 µM | < 100 nM |  | CNC(=O)c1ccc2c(c1)nc(-c1ccccc1OC)n2[C@H]1CCC[C@@H](NC(=O)c2ccc(Br)s2)C1 [Compound 126] | ≥ 1 µM
≥ 1 µM | 500 to 1000 nM |  | CNC(=O)c1ccc2c(c1)nc(-c1ccccc1SC(F)(F)F)n2[C@H]1CCC[C@@H](NC(=O)c2ccc(C#N)s2)C1 [Compound 127] | ≥ 1 µM
≥ 1 µM | 500 to 1000 nM |  | CNC(=O)c1ccc2c(c1)nc(-c1ccccc1SC(F)(F)F)n2[C@H]1CCC[C@@H](NC(=O)c2ccc(Br)s2)C1 [Compound 128] | ≥ 1 µM
≥ 1 µM | 100 to 500 nM |  | CNC(=O)c1ccc2c(c1)nc(-c1ccccc1NC(C)=O)n2[C@H]1CCC[C@@H](NC(=O)c2ccc(Br)s2)C1 [Compound 129] | ≥ 1 µM
≥ 1 µM | 500 to 1000 nM |  | CNC(=O)c1ccc2c(c1)nc(-c1ccccn1)n2[C@H]1CC[C@@H](NC(=O)c2ccc(C#N)s2)C1 [Compound 131] | ≥ 1 µM
≥ 1 µM | 100 to 500 nM |  | N#Cc1ccc(C(=O)N[C@@H]2CCC[C@H](n3c(-c4ccccn4)nc4cc(CO)ccc43)C2)s1 [Compound 133] | ≥ 1 µM
0.5 to 1 µM | 100 to 500 nM |  | O=C(N[C@H]1CCC[C@@H](n2c(-c3ccccn3)nc3cc(C(F)(F)F)ccc32)C1)c1ccc(Br)s1 [Compound 140] | 0.5 to 1 µM
0.1 to 0.5 µM | < 100 nM |  | CNC(=O)c1ccc2c(c1)nc(-c1ccc(F)cc1O)n2[C@H]1CCC[C@@H](NC(=O)c2ccc(C#N)s2)C1 [Compound 188] | 
0.1 to 0.5 µM | < 100 nM |  | CNC(=O)c1ccc2c(c1)nc(-c1cccs1)n2[C@H]1CCC[C@@H](NC(=O)c2ccc(Cl)s2)C1 [Compound 189] | 
 | < 100 nM | 100 to 500 nM | CNC(=O)c1cc2nc(-c3ccccc3F)n(C3CCC[C@@H](NC(=O)c4ccc(F)s4)C3)c2cc1F (stereo partly shown) [Compound 226] | 0.5 to 1 µM
 | < 100 nM | 500 to 1000 nM | CNC(=O)c1cc2nc(-c3sccc3F)n([C@H]3CCC[C@@H](NC(=O)c4ccc(Cl)s4)C3)c2cc1F [Compound 230] | ≥ 1 µM
 | < 100 nM | 100 to 500 nM | CNC(=O)c1cc2nc(-c3ccccn3)n(C3COCC(NC(=O)c4ccc(Br)s4)C3)c2cc1F (stereo not shown) [Compound 234, 1-(5-(5-bromothiophene-2-carboxamido)tetrahydro-2H-pyran-3-yl)-6-fluoro-N-methyl-2-(pyridin-2-yl)-1H-benzo[d]imidazole-5-carboxamide] | ≥ 1 µM
 | 100 to 500 nM | ≥ 1000 nM | CNC(=O)c1ccc2c(c1)nc(-c1ccccn1)n2[C@H]1C[C@@H](NC(=O)c2ccc(Br)s2)CC(F)(F)C1 [Compound 239] | 0.1 to 0.5 µM
 | < 100 nM | 100 to 500 nM | O=C(N[C@@H]1CCC[C@H](n2c(-c3ncccc3F)nc3cnccc32)C1)c1ccc(Br)s1 [Compound 284] | ≥ 1 µM
 | < 100 nM | 500 to 1000 nM | O=C(N[C@@H]1CCC[C@H](n2c(-c3ccccc3F)nc3cccnc32)C1)c1ccc(Br)s1 [Compound 285] | 0.5 to 1 µM
